Assay [1] deals with T1, CYP11B2 (Homo sapiens (Human), UniProt P19099). Briefly: G-402 cellular enzyme assay, human CYP11B2 (aldosterone release). The assay is classed as cell-based. Conditions: G-402 cells expressing human CYP11B2, 1 μM Deoxycorticosterone. The essentials: (§1)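 G-402 cells stably transfected with human CYP11B2 or CYP11B1, dosed with inhibitor and 1 μM deoxycorticosterone (CYP11B2) or 1 μM deoxycortisol (CYP11B1). Aldosterone or cortisol in supernatant quantified by HTRF; EC50 from 4-parameter MMF fit of steroid level versus inhibitor concentration.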

For the next assay, the target named is human CYP11B1 (Homo sapiens (Human), UniProt P15538). Kind of assay: G-402 cellular enzyme assay, human CYP11B1 (cortisol release). As to conditions: G-402 cells expressing human CYP11B1, 1 μM Deoxycortisol. The class given is cell-based. A digest of the protocol: as §1
The conditions of assay [2]: rat CKD model; FAD286 4 weeks of treatment, spironolactone 4 and 8 weeks; cited from earlier work.
For assay [3], the target named is T1, CYP11B2. As to conditions: patients with primary aldosteronism, oral; cited from earlier work.

The term EC50 denotes the midpoint of the concentration-response curve. Read a high EC50 as lower potency in that assay.

T1 sequence (P19099 25-503): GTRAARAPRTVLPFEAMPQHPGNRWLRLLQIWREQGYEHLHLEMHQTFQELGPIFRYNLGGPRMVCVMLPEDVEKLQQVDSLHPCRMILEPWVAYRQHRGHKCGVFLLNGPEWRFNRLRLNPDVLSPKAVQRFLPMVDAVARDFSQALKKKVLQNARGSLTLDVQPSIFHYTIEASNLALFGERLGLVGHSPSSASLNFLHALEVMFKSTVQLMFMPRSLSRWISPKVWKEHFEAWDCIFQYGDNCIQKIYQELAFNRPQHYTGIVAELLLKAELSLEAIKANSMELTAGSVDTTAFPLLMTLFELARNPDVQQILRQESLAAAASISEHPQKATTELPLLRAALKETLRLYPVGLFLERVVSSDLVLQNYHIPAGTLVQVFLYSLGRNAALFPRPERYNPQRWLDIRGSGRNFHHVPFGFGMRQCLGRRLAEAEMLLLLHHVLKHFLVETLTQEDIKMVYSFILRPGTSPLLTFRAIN
human CYP11B1, sequence (P15538 25-503): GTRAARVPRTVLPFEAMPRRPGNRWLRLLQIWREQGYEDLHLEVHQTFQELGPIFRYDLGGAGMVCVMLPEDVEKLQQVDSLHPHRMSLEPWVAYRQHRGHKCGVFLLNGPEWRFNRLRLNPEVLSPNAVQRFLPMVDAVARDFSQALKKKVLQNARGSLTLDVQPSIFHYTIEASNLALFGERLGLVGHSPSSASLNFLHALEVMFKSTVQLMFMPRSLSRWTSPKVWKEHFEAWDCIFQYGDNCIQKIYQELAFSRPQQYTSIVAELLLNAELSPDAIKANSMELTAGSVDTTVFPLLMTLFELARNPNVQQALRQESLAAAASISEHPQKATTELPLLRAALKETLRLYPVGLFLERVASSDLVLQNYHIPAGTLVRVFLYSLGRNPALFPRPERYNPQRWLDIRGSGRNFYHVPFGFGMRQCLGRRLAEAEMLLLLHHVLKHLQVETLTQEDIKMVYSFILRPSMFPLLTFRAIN

As for `CCS(=O)(=O)NC1CCc2c(-c3ccc(C(F)(F)F)cc3)cncc21` (single isomer, unassigned; (+)) [Example 66, (+)-(R or S)—N-(4-(4-(Trifluoromethyl)phenyl)-6,7-dihydro-5H-cyclopenta[c]pyridin-7-yl)ethanesulfonamide], the half-maximal effective concentration (EC50) on CYP11B2 [1] is 280 nM; at human CYP11B1 it was 14200 nM.
The like results for `CCS(=O)(=O)NC1CCc2c(-c3ccc(C(F)(F)F)c(F)c3)cncc21` (single isomer, unassigned; (+)) [Example 73, (+)-(R or S)—N-(4-(3-Fluoro-4-(trifluoromethyl)phenyl)-6,7-dihydro-5H-cyclopenta[c]pyridin-7-yl)ethanesulfonamide] were, in that order, 44.4 nM and 1870 nM.
The like results for `OC1CCCc2c(-c3ccc(C(F)(F)F)cc3)cncc21` (single isomer, unassigned; (+)) [Example 106, (+)-(R or S)-4-(4-(Trifluoromethyl)phenyl)-5,6,7,8-tetrahydroisoquinolin-8-ol] were, in that order, 4.6 nM and 159 nM.
The like results for `Cc1ccc(C2(O)CCCc3c(-c4ccc(C#N)cc4)cncc32)cc1C` (single isomer, unassigned; (-)) [Example 16, (−)-(R or S)-4-(8-(3,4-Dimethylphenyl)-8-hydroxy-5,6,7,8-tetrahydroisoquinolin-4-yl)benzonitrile] were, in that order, 72 nM and 488 nM.
With `CCC(=O)NC1CCc2c(-c3ccc(C#N)cc3)cncc21` (single isomer, unassigned; (-)) [Example 18, (−)-(S or R)—N-(4-(4-Cyanophenyl)-6,7-dihydro-5H-cyclopenta[c]pyridin-7-yl)propionamide], the EC50 at CYP11B2 [1] was found to be 879 nM; on human CYP11B1 it was 7220 nM.
The like results for `CCC(=O)NC1CCCc2c(-c3ccc(Cl)cc3)cncc21` (single isomer, unassigned; (-)) [Example 25, (−)-(S or R)—N-(4-(4-Chlorophenyl)-5,6,7,8-tetrahydroisoquinolin-8-yl)propionamide] were, in that order, 467 nM and 23100 nM.
In the case of `CCC(=O)NC1CCCc2c(-c3ccc(F)c(C)c3)cncc21` (single isomer, unassigned; (-)) [Example 28, (−)-(S or R)—N-(4-(4-Fluoro-3-methylphenyl)-5,6,7,8-tetrahydroisoquinolin-8-yl)propionamide], the EC50 is 226 nM at CYP11B2 [1] and 30400 nM on human CYP11B1.
The like results for `CCC(=O)NC1CCCc2c(-c3ccc(C(F)(F)F)cc3F)cncc21` (single isomer, unassigned; (-)) [Example 34, (−)-(S or R)—N-(4-(2-Fluoro-4-(trifluoromethyl)phenyl)-5,6,7,8-tetrahydroisoquinolin-8-yl)propionamide] were, in that order, 4490 nM and 42400 nM.
The like results for `CCC(=O)NC1CCCc2c(-c3ccc(Cl)c(F)c3)cncc21` (single isomer, unassigned; (-)) [Example 37, (−)-(S or R)—N-(4-(4-Chloro-3-fluorophenyl)-5,6,7,8-tetrahydroisoquinolin-8-yl)propionamide] were, in that order, 1260 nM and 31400 nM.
For `CCC(=O)NC1CCCc2c(-c3ccc(C(F)(F)F)c(F)c3)cncc21` (single isomer, unassigned; (-)) [Example 40, (−)-(S or R)—N-(4-(3-Fluoro-4-(trifluoromethyl)phenyl)-5,6,7,8-tetrahydroisoquinolin-8-yl)propionamide], in that order: 4850 nM and 32500 nM.
Turning to `C[C@@H](O)C(=O)NC1CCCc2c(-c3ccc(C(F)(F)F)cc3)cncc21` (single isomer, unassigned; (-)) [Example 48, (−)-(R)-2-Hydroxy-N—[(S or R)-4-(4-trifluoromethyl-phenyl)-5,6,7,8-tetrahydro-isoquinolin-8-yl]-propionamide], the EC50 at CYP11B2 [1] stood at 79 nM; at human CYP11B1 it was 2100 nM.
The like results for `CCC(=O)NC1CCc2c(-c3ccc(Cl)c(F)c3)cncc21` (single isomer, unassigned; (-)) [Example 56, (−)-(S or R)—N-(4-(4-Chloro-3-fluorophenyl)-6,7-dihydro-5H-cyclopenta[c]pyridin-7-yl)propionamide] were, in that order, 3210 nM and 38300 nM.
As for `CCC(=O)NC1CCc2c(-c3ccc(C(F)(F)F)cc3F)cncc21` (single isomer, unassigned; (-)) [Example 62, (−)-(S or R)—N-(4-(2-Fluoro-4-(trifluoromethyl)phenyl)-6,7-dihydro-5H-cyclopenta[c]pyridin-7-yl)propionamide], the EC50 at CYP11B2 [1] came out at 1680 nM; on human CYP11B1 it was 14700 nM.
The like results for `CCS(=O)(=O)NC1CCc2c(-c3ccc(C(F)(F)F)cc3)cncc21` (single isomer, unassigned; (-)) [Example 65, (−)-(S or R)—N-(4-(4-(Trifluoromethyl)phenyl)-6,7-dihydro-5H-cyclopenta[c]pyridin-7-yl)ethanesulfonamide] were, in that order, 1630 nM and 1080 nM.
The like results for `OC1CCCc2c(-c3ccc(C(F)(F)F)cc3)cncc21` (single isomer, unassigned; (-)) [Example 105, (−)-(S or R)-4-(4-(Trifluoromethyl)phenyl)-5,6,7,8-tetrahydroisoquinolin-8-ol] were, in that order, 107 nM and 1670 nM.
Turning to `C[C@@H](O)C(=O)NC1CCCc2c(-c3ccc(C(F)(F)F)cc3)cncc21` (stereo partly drawn) [Example 46, (R)-2-Hydroxy-N—[(S,R)-4-(4-trifluoromethyl-phenyl)-5,6,7,8-tetrahydro-isoquinolin-8-yl]-propionamide], the concentration giving a half-maximal response (EC50) on CYP11B2 [1] worked out at 160 nM; on human CYP11B1 it was 3760 nM.
For `C[C@@H](O)C(=O)NC1CCc2c(-c3ccc(C(F)(F)F)cc3)cncc21` (stereo partly drawn) [Example 52, (R)-2-Hydroxy-N—((R,S)-4-(4-(trifluoromethyl)phenyl)-6,7-dihydro-5H-cyclopenta[c]pyridin-7-yl)propanamide], in that order: 203 nM and 3710 nM.
For `N[C@@H]1CCCc2c(-c3ccc(C(F)(F)F)cc3F)cncc21` [Example 74, (+)-(R)-4-(2-Fluoro-4-(trifluoromethyl)phenyl)-5,6,7,8-tetrahydroisoquinolin-8-amine], in that order: 32.8 nM and 1220 nM.
The like results for `CC(=O)N[C@@H]1CCCc2c(-c3ccc(C(F)(F)F)cc3F)cncc21` [Example 75, (+)-(R)—N-(4-(2-Fluoro-4-(trifluoromethyl)phenyl)-5,6,7,8-tetrahydroisoquinolin-8-yl)acetamide] were, in that order, 51.2 nM and 3540 nM.
In the case of `CS(=O)(=O)N[C@@H]1CCCc2c(-c3ccc(C(F)(F)F)cc3F)cncc21` [Example 76, (+)-(R)—N-(4-(2-Fluoro-4-(trifluoromethyl)phenyl)-5,6,7,8-tetrahydroisoquinolin-8-yl)methanesulfonamide], the figures for the EC50 at CYP11B2 [1] and at human CYP11B1 were 118 nM and 23200 nM, respectively.
The like results for `CC(=O)N[C@@H]1CCCc2c(-c3ccc(C(F)(F)F)cc3)cncc21` [Example 77, (+)-(R)—N-(4-(4-(Trifluoromethyl)phenyl)-5,6,7,8-tetrahydroisoquinolin-8-yl)acetamide] were, in that order, 58.8 nM and 2240 nM.
As for `CC(=O)N[C@@H]1CCCc2c(-c3ccc(C#N)cc3)cncc21` [Example 78, (+)-(R)—N-(4-(4-Cyanophenyl)-5,6,7,8-tetrahydroisoquinolin-8-yl)acetamide], the figures for the EC50 on CYP11B2 [1] and on human CYP11B1 were 23.3 nM and 276 nM, respectively.
`CC(=O)N[C@@H]1CCCc2c(-c3ccc(C(F)(F)F)c(F)c3)cncc21` [Example 79, (+)-(R)—N-(4-(3-Fluoro-4-(trifluoromethyl)phenyl)-5,6,7,8-tetrahydroisoquinolin-8-yl)acetamide]: the EC50 on CYP11B2 [1] amounted to 35.6 nM; on human CYP11B1 it was 1780 nM.
For `CCC(=O)N[C@@H]1CCCc2c(-c3ccc(C(F)(F)F)cc3C3CC3)cncc21` [Example 107, (R)—N-(4-(2-Cyclopropyl-4-(trifluoromethyl)phenyl)-5,6,7,8-tetrahydroisoquinolin-8-yl)propionamide], the EC50 turned out to be 964 nM at CYP11B2 [1] and 7830 nM at human CYP11B1.
Turning to `N#Cc1ccc(C2CCCc3cncn32)cc1` (centres unmarked) [FAD286], the plasma aldosterone entry in assay [2] is “reduced”.
`N#Cc1ccc([C@H]2CCc3cncn32)c(F)c1` [LCI699]: on CYP11B2 [3], the blood pressure result was “mildly decreased”, the circulating aldosterone levels entry was “significantly lower” and the hypokalemia result was “corrected”.
Turning to `CC(=O)S[C@@H]1CC2=CC(=O)CC[C@]2(C)[C@H]2CC[C@@]3(C)[C@@H](CC[C@@]34CCC(=O)O4)[C@H]12` [spironolactone], the plasma aldosterone entry in assay [2] was “increased”.

(Values after patent US9187429B2, “Phenyl-tetrahydroisoquinoline derivatives” (Hoffmann-La Roche Inc., priority 2012, dated 2015).)
